The text below walks through data of US10112899B2 (ViiV HEALTHCARE UK LIMITED, priority 2014, dated 2018).

The pIC50 is the IC50 on a negative log10 scale, so that one unit is a factor of ten.

The structures appear in SMILES notation. pIC50: −log10 of the molar value.

In one assay the test system is HIV in the HTLV-1 transformed cell line MT-4. As to the kind of experiment: organism not typed. It is filed as cell-based. To be noted: MT4, 96 h, MT-4 cells; luciferase/cell titer glo readout after 96 hours; 10 point dose response. Background: ATP-based viability assays read luminescence as a measure of living cells.
In turn, `Cc1ccc(-c2c(C)c3c(c(C)c2[C@H](OC(C)(C)C)C(=O)O)CN(C(=O)N2CCCC[C@H]2C)C3)cc1` [Example 69, (2S)-2-(tert-butoxy)-2-[4,7-dimethyl-6-(4-methylphenyl)-2-[(2R)-2-methylpiperidine-1-carbonyl]-2,3-dihydro-1H-isoindol-5-yl]acetic acid] gave a pIC50 of 7.85.

Take `Cc1ccc(-c2c(C)c3c(c(C)c2[C@H](OC(C)(C)C)C(=O)O)CN(S(=O)(=O)N2CCC(F)(F)C2)C3)cc1` [Example 289, (S)-2-(tert-butoxy)-2-(2-((3,3-difluoropyrrolidin-1-yl)sulfonyl)-4,7-dimethyl-6-(p-tolyl)isoindolin-5-yl)acetic acid]: the pIC50 is 7.85. On the same count and under the same terms, in the case of `Cc1ccc(-c2c(C)c3c(c(C)c2[C@H](OC(C)(C)C)C(=O)O)CN(Cc2ccc(Cl)c(Cl)c2)C3)cc1` [Example 26, (S)-2-(tert-butoxy)-2-(2-(3,4-dichlorobenzyl)-4,7-dimethyl-6-(p-tolyl)isoindolin-5-yl)acetic acid] it was 7.27; in that of `Cc1c(-c2c(C)c3c(c(C)c2[C@H](OC(C)(C)C)C(=O)O)CN(C(=O)c2cccc(F)c2F)C3)cc(F)c2c1CCCO2` (atropisomer, axis not shown; (M)) [Example 176, (S)-2-(tert-butoxy)-2-((M)-2-(2,3-difluorobenzoyl)-6-(8-fluoro-5-methylchroman-6-yl)-4,7-dimethylisoindolin-5-yl)acetic acid], 8.40. On the same count and under the same terms, next, `CC(=O)N1CCN(C(=O)N2Cc3c(C)c(-c4ccc(C)cc4)c([C@H](OC(C)(C)C)C(=O)O)c(C)c3C2)CC1` [Example 85, (S)-2-(2-(4-acetylpiperazine-1-carbonyl)-4,7-dimethyl-6-(p-tolyl)isoindolin-5-yl)-2-(tert-butoxy)acetic acid]: 6.92. The same measure, in the same setting: next, `Cc1ccc(-c2c(C)c3c(c(C)c2[C@H](OC(C)(C)C)C(=O)O)CN(C(=O)N2CCC[C@H]2C)C3)cc1` [Example 292, (S)-2-(tert-butoxy)-2-(4,7-dimethyl-2-((R)-2-methylpyrrolidine-1-carbonyl)-6-(p-tolyl)isoindolin-5-yl)acetic acid]: 8.30. Turning to `Cc1ccc(-c2c(C)c3c(c(C)c2[C@H](OC(C)(C)C)C(=O)O)CN(S(=O)(=O)NC(C)C)C3)cc1` [Example 51, (2S)-2-(tert-butoxy)-2-[4,7-dimethyl-6-(4-methylphenyl)-2-[(propan-2-yl)sulfamoyl]-2,3-dihydro-1H-isoindol-5-yl]acetic acid], the negative-log IC50 (pIC50) is 7.36. In turn, `Cc1ccc(-c2c(C)c3c(c(C)c2[C@H](OC(C)(C)C)C(=O)O)CN(Cc2ccc(F)c(F)c2)C3)cc1` [Example 53, (2S)-2-(tert-butoxy)-2-{2-[(3,4-difluorophenyl)methyl]-4,7-dimethyl-6-(4-methylphenyl)-2,3-dihydro-1H-isoindol-5-yl}acetic acid] showed a pIC50 of 7.29. Same read-out and setting: next, `Cc1ccc(-c2c(C)c3c(c(C)c2[C@H](OC(C)(C)C)C(=O)O)CN(C(=O)N2CCN4CCC[C@@H]4C2)C3)cc1` [Example 80, (2S)-2-{2-[(8aR)-octahydropyrrolo[1,2-a]piperazine-2-carbonyl]-4,7-dimethyl-6-(4-methylphenyl)-2,3-dihydro-1H-isoindol-5-yl}-2-(tert-butoxy)acetic acid]: 6.42; `Cc1ccc(-c2c(C)c3c(c(C)c2[C@H](OC(C)(C)C)C(=O)O)CN(C(=O)c2cccc(F)c2F)C3)cc1` [Example 120, (S)-2-(tert-butoxy)-2-(2-(2,3-difluorobenzoyl)-4,7-dimethyl-6-(p-tolyl)isoindolin-5-yl)acetic acid]: 8.52.

Staying with this assay, now noted: MT-4 cells; luciferase/cell titer glo readout after 96 hours; 10 point dose response.
As to `Cc1ccc(-c2c(C)c3c(c(C)c2[C@H](OC(C)(C)C)C(=O)O)CN([C@@H]2CCC[C@@H](C)C2)C3)cc1` [Example 37, (2S)-2-(tert-butoxy)-2-{4,7-dimethyl-2-[(1R,3R)-3-methylcyclohexyl]-6-(4-methylphenyl)-2,3-dihydro-1H-isoindol-5-yl}acetic acid], the pIC50 is 6.14.
